Measured values reported in ChEMBL document CHEMBL1152479, “Synthesis and in vitro antitumor activities of novel 4-anilinoquinazoline derivatives” (Eur J Med Chem, 2009).

Assays:
[1] = test system: A431 (human); assay: cells; details: A431, 72 h
[2] = test system: MCF-7 (human); assay: cells; details: MCF-7, 72 h

IC50 [1] | IC50 [2] | SMILES
10.1 µM |  | C#Cc1cccc(Nc2ncnc3cc(OC)c(OCCCn4c(CCCC)nc(Cl)c4C=O)cc23)c1
14.2 µM |  | COc1ccc(Nc2ncnc3cc(OC)c(OCCCSc4nc5ccccc5s4)cc23)cc1
17.2 µM |  | CCc1cc(Br)ccc1Nc1ncnc2cc(OC)c(OCCCSc3nc4ccccc4o3)cc12
4.05 µM | 37 µM | COc1cc2ncnc(Nc3ccc(F)c(Cl)c3)c2cc1OCCCSc1nc2ccccc2o1
4.03 µM | 37.3 µM | COc1cc2ncnc(Nc3cccc(C(F)(F)F)c3)c2cc1OCCCSc1nc2ccccc2o1
9.08 µM |  | COc1cc2ncnc(Nc3ccc(OC(F)(F)F)cc3)c2cc1OCCCSc1nc2ccccc2o1
6.56 µM |  | CCCCc1nc(Cl)c(C=O)n1CCCOc1cc2c(Nc3ccc(Br)cc3CC)ncnc2cc1OC
3 µM | 32.6 µM | CCCCc1nc(Cl)c(C=O)n1CCCOc1cc2c(Nc3cccc(I)c3)ncnc2cc1OC
10 µM |  | C#Cc1cccc(Nc2ncnc3cc(OC)c(OCCCn4c(CCCC)nc(Cl)c4CO)cc23)c1
5.87 µM |  | CCc1cc(Br)ccc1Nc1ncnc2cc(OC)c(OCCCSc3nc4ccccc4s3)cc12
6.44 µM |  | CCCCc1nc(Cl)c(C=O)n1CCCOc1cc2c(Nc3cccc(Br)c3)ncnc2cc1OC
12 µM |  | CCCCc1nc(Cl)c(C=O)n1CCCOc1cc2c(Nc3cccc(F)c3)ncnc2cc1OC
13.1 µM |  | COc1ccc(Nc2ncnc3cc(OC)c(OCCCSc4nc5ccccc5o4)cc23)cc1
9.95 µM |  | CCCCc1nc(Cl)c(CO)n1CCCOc1cc2c(Nc3cccc(I)c3)ncnc2cc1OC
8.2 µM |  | CCCCc1nc(Cl)c(CO)n1CCCOc1cc2c(Nc3cccc(Br)c3)ncnc2cc1OC
5.37 µM |  | COc1cc2ncnc(Nc3ccc(F)c(Cl)c3)c2cc1OCCCSc1nc2ccccc2s1
20 µM |  | CCCCc1nc(Cl)c(CO)n1CCCOc1cc2c(Nc3ccc(OC)cc3)ncnc2cc1OC
12.1 µM |  | COc1cc2ncnc(Nc3ccc(C)cc3)c2cc1OCCCSc1nc2ccccc2o1
17.7 µM |  | CCCCc1nc(Cl)c(CO)n1CCCOc1cc2c(Nc3cccc(F)c3)ncnc2cc1OC
3.51 µM | 38.8 µM | CCCCc1nc(Cl)c(C=O)n1CCCOc1cc2c(Nc3cccc(C(F)(F)F)c3)ncnc2cc1OC
4.05 µM | 35.9 µM | COc1cc2ncnc(Nc3cccc(C(F)(F)F)c3)c2cc1OCCCSc1nc2ccccc2s1
14 µM |  | CCCCc1nc(Cl)c(C=O)n1CCCOc1cc2c(Nc3ccc(OC)cc3)ncnc2cc1OC
5.02 µM |  | CCCCc1nc(Cl)c(C=O)n1CCCOc1cc2c(Nc3ccc(F)c(Cl)c3)ncnc2cc1OC
8.28 µM |  | CCCCc1nc(Cl)c(CO)n1CCCOc1cc2c(Nc3cccc(C(F)(F)F)c3)ncnc2cc1OC
5.99 µM |  | CCCCc1nc(Cl)c(CO)n1CCCOc1cc2c(Nc3ccc(F)c(Cl)c3)ncnc2cc1OC
14.2 µM |  | COc1cc2ncnc(Nc3ccc(C)cc3)c2cc1OCCCSc1nc2ccccc2s1
10.6 µM |  | CCCCc1nc(Cl)c(CO)n1CCCOc1cc2c(Nc3ccc(Br)cc3CC)ncnc2cc1OC
